In PubChem BioAssay AID1963451 (Molecular Pharmacology Branch, DTP, NCI, 2024):
One block for each compound: values may come before it.

Test system: 521955-158-R6-J3-PDC complex spheroid growth, % test/control
Test: Anticancer human tumor 521955-158-R6-J3-PDC patient-derived pancreatic carcinoma cell line growth inhibition [Asc]
Settings: for IC50: curve of first compound; for viability, T/C: stronger effect = lower value
Experimental: Multicellular complex tumor spheroid response to apoptosis pathway targeting inhibitors Alrizomadlin, Pelcitoclax, and Dasminapant in combination with a variety of drugs and investigational agents in selected tumor cell lines
The MDM2 inhibitor alrizomadlin, the Bcl-2/Bcl-xL inhibitor pelcitoclax, and the IAPs inhibitor dasminapant were evaluated both individually and in combination with standard of care and investigational anticancer small molecules within a complex spheroid model of solid tumors. . Complex spheroids include a stromal component modeled by human endothelial cells (HUVEC) and fibroblasts modeled by human mesenchymal stem cells (MSCs). The concentration ranges selected for each drug and investigational agent were based upon clinically achievable concentrations if the clinical Cmax of the agent was known.
Compounds. The drugs and investigational agents: alrizomadlin (APG-115; NSC831270), pelcitoclax (APG-1252; NSC835773), dasminapant (APG-1387;NSC834197), TAK-243 (NSC785004), copanlisib (NSC809693), olaparib (NSC753686), talazoparib (NSC767125), cobimetinib (NSC 768068), eltanexor (KPT-8602, NSC 794443), abemaciclib (NSC 768073), sotorasib (NSC818433), adagrasib (NSC 831453), MRTX-1133 (NSC 836407), Iadademestat (ORY1001, NSC 806812), and RMC-4630 (NSC839698), were obtained from the NCI Developmental Therapeutics Program Chemical Repository. The FDA-approved anticancer drug set is available from the Developmental Therapeutics Program at https://dtp.cancer.gov/organization/dscb/obtaining/available plates.htm. […] The stock solutions were prepared in dimethyl sulfoxide (DMSO, Sigma-Aldrich, St. Louis, MO, cat. D2650) at 800-fold the tested concentration and stored at -70 degrees C prior to their use. All drugs and investigational agents were tested over a range starting from a high concentration at or near the clinical Cmax and decreasing in half-log increments. If the clinical Cmax for an agent had not been determined, the highest concentration tested was 10 microM.
The patient-derived cancer (PDC) cell lines include five colon adenocarcinomas: 186277-243-T-J2-PDC, 616215-338-R-J1-PDC, 439559-082-T-J2-PDC, 463943-066-T-J2-PDC, and 519858-162-T-J1-PDC; three pancreatic carcinomas: 323965-272-R-J2-PDC, 521955-158-R6-J3-PDC, and 521955-158-R2-J5-PDC; two uterine sarcomas: 327498-152-R-J2-PDC and 993429-296-R-J1-PDC; two rhabdomyosarcomas: 755483-174-R-J1-PDC and 772245-204-R-J1-PDC; two soft tissue sarcomas: 126254-015-R-J1-PDC and 494315-158-R-J1-PDC; two malignant fibrous histiocytomas: 317291-083-R-J1-PDC and 596521-263-R-J1-PDC; two breast carcinomas: 171881-019-R-J1-PDC and 885512-296-R-J2-PDC; and one ovarian carcinoma: 6556581-035-R-J-PDC were obtained from the NCI PDMR, (https://pdmr.cancer.gov). The established cell lines HSSY-2 synovial sarcoma (RRID:CVCL 8719), SYO-1 synovial sarcoma (RRID:CVCL_7146), MPNST malignant peripheral neural sheath tumor were obtained from the Sloan Kettering Institute. The following established cell lines were purchased from the American Type Culture Collection (ATCC, Manassas, VA), Sor the received from the NCI repository:, PANC-1 pancreatic carcinoma (CRL-1469, RRID:CVCL_0480), OVCAR-5 ovarian carcinoma (RRID:CVCL_1628), OVCAR-8 ovarian carcinoma (RRID:CVCL_1629), , MCF-7 breast carcinoma (CRL-12584, RRID:CVCL_0031), MDA-MB-231 breast carcinoma (CRL-12532, RRID:CVCL_0062), NCI-H1876 small cell lung carcinoma (CRL-5902, RRID:CVCL_1503), NCI-H510A small cell lung carcinoma (HTB-184, RRID:CVCL_1565), NCI-H1417 (CRL-5869, RRID:CVCL_1469), and NCI-H196 small cell lung carcinoma (CRL-5823, RRID:CVCL_1509). Dr. Peter Houghton (Greehey Children's Cancer Research Institute, University of Texas Health Science Center, San Antonio, TX) provided Rh-18 rhabdomyosarcoma (RRID:CVCL_1659). Pooled donor human umbilical vein endothelial cells (HUVEC, Lonza, cat. CC-2519) and human mesenchymal stem cells (hMSC, Lonza, cat. PT-2501) were purchased from Lonza (Walkersville, MD).
Cell Culture. […]
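Note: spheroids exposed to compounds for 7 days.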
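Throughout, for viability, T/C: 100% = DMSO vehicle control wells.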

IC50 (second compound 0.00949 µM): > 300 nM
IC50 (second compound 0.03 µM): > 300 nM
IC50 (second compound 0.0949 µM): > 300 nM
IC50 (second compound 0.3 µM): > 300 nM
IC50 (second compound 0.949 µM): > 300 nM
IC50 (second compound 3 µM): > 300 nM
SMILES: NC(=O)C(=Cn1cnc(-c2cc(C(F)(F)F)cc(C(F)(F)F)c2)n1)c1cncnc1 + CCN1C(C(=O)NC23CCC(C(=O)O)(CC2)CC3)C(c2cccc(Cl)c2F)C2(C(=O)Nc3cc(Cl)ccc32)C12CCCCC2
viability, T/C (second compound 0.00949 µM, first compound 0.000949 µM): 99.6%
viability, T/C (second compound 0.00949 µM, first compound 0.003 µM): 86.8%
viability, T/C (second compound 0.00949 µM, first compound 0.00949 µM): 77.3%
viability, T/C (second compound 0.00949 µM, first compound 0.03 µM): 99%
viability, T/C (second compound 0.00949 µM, first compound 0.0949 µM): 82.9%
viability, T/C (second compound 0.00949 µM, first compound 0.3 µM): 93.2%
viability, T/C (second compound 0.03 µM, first compound 0.000949 µM): 93.7%
viability, T/C (second compound 0.03 µM, first compound 0.003 µM): 83.7%
viability, T/C (second compound 0.03 µM, first compound 0.00949 µM): 69.6%
viability, T/C (second compound 0.03 µM, first compound 0.03 µM): 86%
viability, T/C (second compound 0.03 µM, first compound 0.0949 µM): 103%
viability, T/C (second compound 0.03 µM, first compound 0.3 µM): 102%
viability, T/C (second compound 0.0949 µM, first compound 0.000949 µM): 88.8%
viability, T/C (second compound 0.0949 µM, first compound 0.003 µM): 87.3%
viability, T/C (second compound 0.0949 µM, first compound 0.00949 µM): 78.1%
viability, T/C (second compound 0.0949 µM, first compound 0.03 µM): 85.1%
viability, T/C (second compound 0.0949 µM, first compound 0.0949 µM): 98.8%
viability, T/C (second compound 0.0949 µM, first compound 0.3 µM): 113%
viability, T/C (second compound 0.3 µM, first compound 0.000949 µM): 88.7%
viability, T/C (second compound 0.3 µM, first compound 0.003 µM): 76.9%
viability, T/C (second compound 0.3 µM, first compound 0.00949 µM): 85.8%
viability, T/C (second compound 0.3 µM, first compound 0.03 µM): 82.2%
viability, T/C (second compound 0.3 µM, first compound 0.0949 µM): 117%
viability, T/C (second compound 0.3 µM, first compound 0.3 µM): 107%
viability, T/C (second compound 0.949 µM, first compound 0.000949 µM): 94%
viability, T/C (second compound 0.949 µM, first compound 0.003 µM): 78.3%
viability, T/C (second compound 0.949 µM, first compound 0.00949 µM): 95.1%
viability, T/C (second compound 0.949 µM, first compound 0.03 µM): 78.7%
viability, T/C (second compound 0.949 µM, first compound 0.0949 µM): 105%
viability, T/C (second compound 0.949 µM, first compound 0.3 µM): 98.1%
viability, T/C (second compound 3 µM, first compound 0.000949 µM): 87.2%
viability, T/C (second compound 3 µM, first compound 0.003 µM): 97.7%
viability, T/C (second compound 3 µM, first compound 0.00949 µM): 69.6%
viability, T/C (second compound 3 µM, first compound 0.03 µM): 75.7%
viability, T/C (second compound 3 µM, first compound 0.0949 µM): 99.8%
viability, T/C (second compound 3 µM, first compound 0.3 µM): 84.4%

IC50 (second compound 0.00949 µM): > 100 nM
IC50 (second compound 0.03 µM): > 100 nM
IC50 (second compound 0.0949 µM): > 100 nM
IC50 (second compound 0.3 µM): > 100 nM
IC50 (second compound 0.949 µM): > 100 nM
IC50 (second compound 3 µM): > 100 nM
SMILES: NC1CCC(NC2CC2c2ccccc2)CC1 (centres undefined) + CCN1C(C(=O)NC23CCC(C(=O)O)(CC2)CC3)C(c2cccc(Cl)c2F)C2(C(=O)Nc3cc(Cl)ccc32)C12CCCCC2
viability, T/C (second compound 0.00949 µM, first compound 0.000316 µM): 112%
viability, T/C (second compound 0.00949 µM, first compound 0.001 µM): 104%
viability, T/C (second compound 0.00949 µM, first compound 0.00316 µM): 90.5%
viability, T/C (second compound 0.00949 µM, first compound 0.01 µM): 105%
viability, T/C (second compound 0.00949 µM, first compound 0.0316 µM): 85.3%
viability, T/C (second compound 0.00949 µM, first compound 0.1 µM): 108%
viability, T/C (second compound 0.03 µM, first compound 0.000316 µM): 111%
viability, T/C (second compound 0.03 µM, first compound 0.001 µM): 106%
viability, T/C (second compound 0.03 µM, first compound 0.00316 µM): 100%
viability, T/C (second compound 0.03 µM, first compound 0.01 µM): 99.6%
viability, T/C (second compound 0.03 µM, first compound 0.0316 µM): 105%
viability, T/C (second compound 0.03 µM, first compound 0.1 µM): 84.7%
viability, T/C (second compound 0.0949 µM, first compound 0.000316 µM): 108%
viability, T/C (second compound 0.0949 µM, first compound 0.001 µM): 118%
viability, T/C (second compound 0.0949 µM, first compound 0.00316 µM): 120%
viability, T/C (second compound 0.0949 µM, first compound 0.01 µM): 127%
viability, T/C (second compound 0.0949 µM, first compound 0.0316 µM): 99.6%
viability, T/C (second compound 0.0949 µM, first compound 0.1 µM): 99.9%
viability, T/C (second compound 0.3 µM, first compound 0.000316 µM): 94.6%
viability, T/C (second compound 0.3 µM, first compound 0.001 µM): 108%
viability, T/C (second compound 0.3 µM, first compound 0.00316 µM): 111%
viability, T/C (second compound 0.3 µM, first compound 0.01 µM): 101%
viability, T/C (second compound 0.3 µM, first compound 0.0316 µM): 110%
viability, T/C (second compound 0.3 µM, first compound 0.1 µM): 102%
viability, T/C (second compound 0.949 µM, first compound 0.000316 µM): 101%
viability, T/C (second compound 0.949 µM, first compound 0.001 µM): 125%
viability, T/C (second compound 0.949 µM, first compound 0.00316 µM): 114%
viability, T/C (second compound 0.949 µM, first compound 0.01 µM): 105%
viability, T/C (second compound 0.949 µM, first compound 0.0316 µM): 113%
viability, T/C (second compound 0.949 µM, first compound 0.1 µM): 96%
viability, T/C (second compound 3 µM, first compound 0.000316 µM): 113%
viability, T/C (second compound 3 µM, first compound 0.001 µM): 109%
viability, T/C (second compound 3 µM, first compound 0.00316 µM): 128%
viability, T/C (second compound 3 µM, first compound 0.01 µM): 104%
viability, T/C (second compound 3 µM, first compound 0.0316 µM): 111%
viability, T/C (second compound 3 µM, first compound 0.1 µM): 88.7%
